Data published in the NIST ThermoML archive (doi:10.1021/je401118k).

Test: mn = molality of the nth substance listed, in mol/kg
Settings: for electrical conductivity: 101 kPa, Liquid, Alternating current cell with electrodes; for surface tension liquid-gas: Ring tensiometer

C[N+]1(CCC[Si](O[Si](C)(C)C)(O[Si](C)(C)C)O[Si](C)(C)C)CCCC1.O=[N+]([O-])[O-] + O
Settings	electrical conductivity, 288.15 K [S/m]	electrical conductivity, 293.15 K [S/m]	electrical conductivity, 298.15 K [S/m]	electrical conductivity, 303.15 K [S/m]	electrical conductivity, 308.15 K [S/m]	surface tension liquid-gas, 298.15 K [mN/m]
m1 = 1e-06	–	–	–	–	–	71.3
m1 = 1e-05	–	–	–	–	–	67.8
m1 = 0.0001	–	–	–	–	–	54.3
m1 = 0.0006	–	–	–	–	–	42
m1 = 0.0008	0.00614	0.00666	0.00734	0.00801	0.00864	–
m1 = 0.0009	0.00682	0.00744	0.00818	0.00894	0.00984	–
m1 = 0.001	0.00733	0.0081	0.00888	0.00967	0.01058	37.4
m1 = 0.002	0.0143	0.01556	0.01717	0.01881	0.0212	33.3
m1 = 0.003	0.0209	0.0231	0.0255	0.0279	0.0302	30.3
m1 = 0.004	0.0264	0.0291	0.0321	0.0354	0.0388	27.6
m1 = 0.005	0.0282	0.031	0.0348	0.0392	0.0438	26.1
m1 = 0.006	0.03	0.0329	0.0367	0.0414	0.0466	25.1
m1 = 0.007	0.0312	0.0343	0.0382	0.043	0.0486	24
m1 = 0.008	0.0324	0.0354	0.0396	0.0447	0.0502	23.3
m1 = 0.009	0.0335	0.0369	0.041	0.0464	0.0525	23
m1 = 0.01	–	–	–	–	–	22.4
m1 = 0.015	–	–	–	–	–	21.4
m1 = 0.02	–	–	–	–	–	21.2
m1 = 0.025	–	–	–	–	–	21.3
m1 = 0.03	–	–	–	–	–	21.2

CC(=O)[O-].C[N+]1(CCC[Si](O[Si](C)(C)C)(O[Si](C)(C)C)O[Si](C)(C)C)CCCC1 + O
298.15 K
Settings	surface tension liquid-gas [mN/m]
m1 = 1e-06	70.5
m1 = 1e-05	58.2
m1 = 0.0001	47.1
m1 = 0.0002	42.4
m1 = 0.0004	36.9
m1 = 0.0006	32.1
m1 = 0.0008	29.7
m1 = 0.001	27.8
m1 = 0.002	23.5
m1 = 0.003	21.5
m1 = 0.004	20.2
m1 = 0.005	20
m1 = 0.006	20
m1 = 0.007	20
m1 = 0.008	20
m1 = 0.009	20
